Among the data in ChEMBL document CHEMBL1136478, “New cerebrosides from Euphorbia peplis L.: antimicrobial activity evaluation” (2003) are MIC values, retold here.

Assay [1] deals with Cryptococcus neoformans. Kind of assay: Antifungal activity against Cryptococcus neoformans after 48 hr incubation.
In assay [2] the test system is Candida parapsilosis. Kind of assay: Antifungal activity against Candida parapsilosis after 48 hr incubation. The format is functional. As to conditions: Lodderomyces parapsilosis.
For assay [3], the system named is Candida parapsilosis. The experiment in a line: Antifungal activity against Candida parapsilosis after 24 hr incubation. The format is functional. As to conditions: Lodderomyces parapsilosis.
Assay [4] deals with Escherichia coli. Kind of assay: Antibacterial activity against Escherichia coli ATCC 25922. The format is functional.
Assay [5] has as its system Nakaseomyces glabratus. Kind of assay: Antifungal activity against Candida glabrata after 48 hr incubation. The format is functional.
Assay [6] deals with Mycobacterium tuberculosis. Kind of assay: Antibacterial activity against human Mycobacterium tuberculosis H37Rv. The format is functional.
Assay [7] deals with Mycobacterium tuberculosis. The experiment in a line: Antibacterial activity against Mycobacterium tuberculosis H242. The format is functional.
Assay [8] relates to Nakaseomyces glabratus. Kind of assay: Antifungal activity against Candida glabrata after 24 hr incubation. The format is functional.
For assay [9], the system named is Candida albicans. The experiment in a line: Antifungal activity against Candida albicans after 48 hr incubation. The format is functional.
The test system of assay [10] is Staphylococcus aureus. The experiment in a line: Antibacterial activity against Staphylococcus aureus ATCC 25923. The format is functional.
For assay [11], the system named is Mycobacterium tuberculosis. The experiment in a line: Antibacterial activity against Mycobacterium tuberculosis H331. The format is functional.
In assay [12] the test system is Candida albicans. Kind of assay: Antifungal activity against Candida albicans after 24 hr incubation. The format is functional.
Assay [13] has as its system Mycobacterium tuberculosis. The experiment in a line: Antibacterial activity against Mycobacterium tuberculosis H172. The format is functional.
Assay [14] concerns Cryptococcus neoformans. The experiment in a line: Antifungal activity against Cryptococcus neoformans after 24 hr incubation.

Broadly, the MIC is the smallest concentration in the dilution series that meets the test's criterion for growth inhibition. Low readings indicate inhibition by little substance, high ones a need for much substance.

≈ marks a conversion by molar mass, not a printed value.

Turning to `CCCCCCCCC/C=C/CCC[C@@H](O)[C@@H](O)[C@H](CO[C@@H]1OC(CO)[C@@H](O)C(O)C1O)NC(=O)[C@H](O)CCCCCCCCCCCCCCCCCCCCCC` (some centres undefined), the minimal inhibitory concentration (MIC) in assay [1] was > 128 µg/mL; in assay [2], > 128 µg/mL; in assay [3], > 128 µg/mL; in [4] it was > 160 µg/mL; in assay [5], > 128 µg/mL; in assay [6], > 160 µg/mL. Moreover, the MIC in [7] was > 160 µg/mL; in assay [8], > 128 µg/mL; in assay [9], > 128 µg/mL; in assay [10] it was > 160 µg/mL; in [11] it was > 160 µg/mL; in assay [12] it was > 128 µg/mL. Moreover, the MIC was > 160 µg/mL in [13] and 128 µg/mL (≈ 152 µM) in [14].
Take `CCCCCCCCC/C=C/CC/C=C/[C@@H](O)[C@H](CO[C@@H]1OC(CO)[C@@H](O)C(O)C1O)NC(=O)[C@H](O)CCCCCCCCCCCCCC` (some centres undefined): the minimal inhibitory concentration (MIC) is > 128 µg/mL in assay [1]; > 128 µg/mL in assay [2]; > 128 µg/mL in assay [3]; > 160 µg/mL in [4]; > 128 µg/mL in assay [5]; > 160 µg/mL in assay [6]. The minimum inhibitory concentration (MIC) in assay [7] was > 160 µg/mL; in [8] it was > 128 µg/mL; in assay [9], > 128 µg/mL; in assay [10], > 160 µg/mL; in assay [11], > 160 µg/mL; in [12], > 128 µg/mL. Further, the minimum inhibitory concentration (MIC) in [13] was > 160 µg/mL; in assay [14], 128 µg/mL (≈ 179 µM).
Take `CCCCCCCC/C=C/CCCCCCCCCCCCCC[C@@H](O)C(=O)N[C@@H](CO[C@@H]1OC(CO)[C@@H](O)C(O)C1O)[C@H](O)[C@H](O)CCC/C=C/CCCCCCCCC` (some centres undefined): the minimal inhibitory concentration (MIC) in [1] is > 128 µg/mL; in assay [2] it was > 128 µg/mL; in [3], > 128 µg/mL; in assay [4] it was > 160 µg/mL; in assay [5], > 128 µg/mL; in assay [6], 40 µg/mL (≈ 46 µM). Besides, the MIC in assay [7] was 80 µg/mL (≈ 91.9 µM); in assay [8], > 128 µg/mL; in [9], > 128 µg/mL; in [10] it was > 160 µg/mL; in [11], 40 µg/mL (≈ 46 µM); in assay [12] it was > 128 µg/mL. Besides, the values for the MIC in assay [13] and in [14] were 40 µg/mL (≈ 46 µM) and 128 µg/mL (≈ 147 µM), respectively.
As for `O=C(O)c1cn(C2CC2)c2cc(N3CCNCC3)c(F)cc2c1=O` [CIPROFLOXACIN], the MIC was 0.25 µg/mL (≈ 0.754 µM) in assay [6]; 0.125 µg/mL (≈ 0.377 µM) in assay [7]; 0.5 µg/mL (≈ 1.51 µM) in assay [10]; 0.125 µg/mL (≈ 0.377 µM) in assay [11]; 0.25 µg/mL (≈ 0.754 µM) in assay [13].
In the case of `Clc1ccc(COC(Cn2ccnc2)c2ccc(Cl)cc2Cl)c(Cl)c1` (centres undefined) [MICONAZOLE], the minimum inhibitory concentration (MIC) is 0.156 µg/mL (≈ 0.375 µM) in [1]; 1.25 µg/mL (≈ 3 µM) in assay [2]; 0.625 µg/mL (≈ 1.5 µM) in [3]; 10 µg/mL (≈ 24 µM) in [5]; 5 µg/mL (≈ 12 µM) in [8]; 40 µg/mL (≈ 96.1 µM) in assay [9]. For the same compound, the MIC came out at 2.5 µg/mL (≈ 6.01 µM) in assay [12] and 0.156 µg/mL (≈ 0.375 µM) in assay [14].
`CCCCCCCC/C=C/CCCCCCCCCCCC[C@@H](O)C(=O)N[C@@H](CO[C@@H]1OC(CO)[C@@H](O)C(O)C1O)[C@H](O)[C@H](O)CCC/C=C/CCCCCCCCC` (some centres undefined): the minimal inhibitory concentration (MIC) in assay [1] was > 128 µg/mL; in [2] it was > 128 µg/mL; in assay [3] it was > 128 µg/mL; in assay [4], 160 µg/mL (≈ 190 µM); in [5], > 128 µg/mL; in assay [6] it was 160 µg/mL (≈ 190 µM). In addition, the MIC in [7] is > 160 µg/mL; in [8], > 128 µg/mL; in assay [9], > 128 µg/mL; in assay [10] it was 160 µg/mL (≈ 190 µM); in assay [11], > 160 µg/mL; in assay [12] it was > 128 µg/mL. For the same compound, the minimum inhibitory concentration (MIC) in assay [13] is > 160 µg/mL; in assay [14], 64 µg/mL (≈ 76 µM).
